Source: US8426604B2 (Janssen Pharmaceutica NV, priority 2010, dated 2013)
pEC50: −log10 of the molar value.

Target: T1, ERR1 (also known as ERR-α or ERR-1) (Homo sapiens, UniProt P11474)
T1 sequence (P11474 193-421 limits assumed): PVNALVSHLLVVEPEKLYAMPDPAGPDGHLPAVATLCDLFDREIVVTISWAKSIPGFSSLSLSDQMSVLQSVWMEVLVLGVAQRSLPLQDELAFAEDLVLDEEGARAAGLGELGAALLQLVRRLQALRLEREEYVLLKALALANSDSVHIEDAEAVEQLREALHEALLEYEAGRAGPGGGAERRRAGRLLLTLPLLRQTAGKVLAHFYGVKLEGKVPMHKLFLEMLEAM
Test: TR-FRET assay (disruption of co-activator peptide binding)
Type: biochemical
Conditions: 6His-tagged ERR1LBD, GST-hSRC2 co-activator peptide; average of 3 independent experiments
Procedure: Time-Resolved Fluorescence Resonance Energy Transfer (TR-FRET) experiments were performed to examine the functional response of ERR1 (also known as ERR-α or ERR-1) ligands. The TR-FRET assay described herein relied on the conformation of ERR1 for binding to a co-activator peptide: when a test compound binds to ERR1 and alters its conformation, it can disrupt the binding of the co-activator peptide. The components of this homogeneous secondary assay included: the ^6His-tagged-ERR1LBD, a GST-labeled-hSRC2 co-activator polypeptide and a fluorescent donor/acceptor pair from CIS bio international htrf/bioassays (Bedford, Mass.) using both an α-GST Europium Cryptate (Eu) label and an α^6His-XL665 (allophycocyanin) fluorophore.
For TR-FRET measurements, the reaction was buffered in 25 mM Tris pH 8, 2.5 mM Hepes, 20 mM KCl, 1 mM DTT, and 0.05 mg/mL BSA (-lipids). The final concentrations of reagents were 6 nM of ERR1LBD, 6 nM GST-SRC-2 peptide, 30 nM Eu cryptate, and 7.5 nM XL665. Reactions were allowed to reach equilibrium at 25° C. for 4-18 hours before collecting data on the Analyst from LJL Biosystems (Molecular Devices Sunnyvale, Calif.). As a time-resolved method, the samples were excited at […] and emission was collected for 1 ms at both 615 and 665 nm with delays of 400 and 75 μs, respectively. Dose response curves were fitted using a hyperbolic equation and the data reported is the average of 3 independent experiments.

Row | Compound | pEC50
1 | CN(C1=NC(=O)/C(=C/c2ccc3c(cnn3Cc3ccc(Cl)cc3C(F)(F)F)c2)S1)C1CCN(CCF)CC1 [Compound 25, 5-[1-(4-Chloro-2-trifluoromethyl-benzyl)-1H-indazol-5-ylmethylene]-2-{[1-(2-fluoro-ethyl)-piperidin-4-yl]-methyl-amino}-thiazol-4-one] | 7.96
2 | C=CCN(C)C1=NC(=O)/C(=C/c2ccc3c(cnn3Cc3ccc(Cl)cc3C(F)(F)F)c2)S1 [Compound 39, 2-(Allyl-methyl-amino)-5-[1-(4-chloro-2-trifluoromethyl-benzyl)-1H-indazol-5-ylmethylene]-thiazol-4-one] | 7.60
3 | CN(CCO)C1=NC(=O)/C(=C/c2ccc3c(cnn3Cc3ccc(Cl)cc3C(F)(F)F)c2)S1 [Compound 30, 5-[1-(4-Chloro-2-trifluoromethyl-benzyl)-1H-indazol-5-ylmethylene]-2-[(2-hydroxy-ethyl)-methyl-amino]-thiazol-4-one] | 7.92
4 | CNCC(O)CN(C)C1=NC(=O)/C(=C/c2ccc3c(cnn3Cc3ccc(Cl)cc3C(F)(F)F)c2)S1 (stereo not drawn) [Compound 49, 5-[1-(4-Chloro-2-trifluoromethyl-benzyl)-1H-indazol-5-ylmethylene]-2-[(2-hydroxy-3-methylamino-propyl)-methyl-amino]-thiazol-4-one] | 7.39
5 | CN(C1=NC(=O)/C(=C/c2ccc3c(cnn3Cc3ccc(C(F)(F)F)cc3C(F)(F)F)c2)S1)[C@H]1C[C@@H](CO)N(CC(N)=O)C1 [Compound 59, 2-[4-({5-[1-(2,4-Bis-trifluoromethyl-benzyl)-1H-indazol-5-ylmethylene]-4-oxo-4,5-dihydro-thiazol-2-yl}-methyl-amino)-2-hydroxymethyl-pyrrolidin-1-yl]-acetamide] | 7.57
6 | CN(CC(=O)O)C1=NC(=O)/C(=C/c2ccc3c(cnn3Cc3ccc(Cl)cc3C(F)(F)F)c2)S1 [Compound 22, ({5-[1-(4-Chloro-2-trifluoromethyl-benzyl)-1H-indazol-5-ylmethylene]-4-oxo-4,5-dihydro-thiazol-2-yl}-methyl-amino)-acetic acid] | 7.89
7 | CN(CCCn1cccn1)C1=NC(=O)/C(=C/c2ccc3c(cnn3Cc3ccc(Cl)cc3C(F)(F)F)c2)S1 [Compound 33, 5-[1-(4-Chloro-2-trifluoromethyl-benzyl)-1H-indazol-5-ylmethylene]-2-[methyl-(3-pyrazol-1-yl-propyl)-amino]-thiazol-4-one] | 7.89
8 | CN(C)CCN(C)C1=NC(=O)/C(=C/c2ccc3c(cnn3Cc3ccc(Cl)cc3C(F)(F)F)c2)S1 [Compound 5, 5-[1-(4-Chloro-2-trifluoromethyl-benzyl)-1H-indazol-5-ylmethylene]-2-[(2-dimethylamino-ethyl)-methyl-amino]-thiazol-4-one] | 8.29
9 | CN1CCC(CN(C)C2=NC(=O)/C(=C/c3ccc4c(cnn4Cc4ccc(Cl)cc4C(F)(F)F)c3)S2)C1 (stereo not drawn) [Compound 34, 5-[1-(4-Chloro-2-trifluoromethyl-benzyl)-1H-indazol-5-ylmethylene]-2-[methyl-(1-methyl-pyrrolidin-3-ylmethyl)-amino]-thiazol-4-one] | 7.77
10 | CN(CCC#N)C1=NC(=O)/C(=C/c2ccc3c(cnn3Cc3ccc(Cl)cc3C(F)(F)F)c2)S1 [Compound 38, 3-({5-[1-(4-Chloro-2-trifluoromethyl-benzyl)-1H-indazol-5-ylmethylene]-4-oxo-4,5-dihydro-thiazol-2-yl}-methyl-amino)-propionitrile] | 7.59
11 | COCCN(CCOC)C1=NC(=O)/C(=C/c2ccc3c(cnn3Cc3ncc(C(F)(F)F)cc3Cl)c2)S1 [Compound 10, 2-[Bis-(2-methoxy-ethyl)-amino]-5-[1-(3-chloro-5-trifluoromethyl-pyridin-2-ylmethyl)-1H-indazol-5-ylmethylene]-thiazol-4-one] | 6.10
12 | CN(CCN1CCOCC1)C1=NC(=O)/C(=C/c2ccc3c(cnn3Cc3ccc(Cl)cc3C(F)(F)F)c2)S1 [Compound 26, 5-[1-(4-Chloro-2-trifluoromethyl-benzyl)-1H-indazol-5-ylmethylene]-2-[methyl-(2-morpholin-4-yl-ethyl)-amino]-thiazol-4-one] | 7.68
13 | COCCN1CCC(N(C)C2=NC(=O)/C(=C/c3ccc4c(cnn4Cc4ccc(Cl)cc4C(F)(F)F)c3)S2)CC1 [Compound 24, 5-[1-(4-Chloro-2-trifluoromethyl-benzyl)-1H-indazol-5-ylmethylene]-2-{[1-(2-methoxy-ethyl)-piperidin-4-yl]-methyl-amino}-thiazol-4-one] | 8.05
14 | CN1CCN(CCN(C)C2=NC(=O)/C(=C/c3ccc4c(cnn4Cc4ccc(Cl)cc4C(F)(F)F)c3)S2)CC1 [Compound 23, 5-[1-(4-Chloro-2-trifluoromethyl-benzyl)-1H-indazol-5-ylmethylene]-2-{methyl-[2-(4-methyl-piperazin-1-yl)-ethyl]-amino}-thiazol-4-one] | 8.05
15 | O=C1N=C(N(CCO)CCO)S/C1=C\c1ccc2c(cnn2Cc2ncc(C(F)(F)F)cc2Cl)c1 [Compound 12, 2-[Bis-(2-hydroxy-ethyl)-amino]-5-[1-(3-chloro-5-trifluoromethyl-pyridin-2-ylmethyl)-1H-indazol-5-ylmethylene]-thiazol-4-one] | 5.41
16 | COC[C@@H]1C[C@H](N(C)C2=NC(=O)/C(=C/c3ccc4c(cnn4Cc4ccc(Cl)cc4C(F)(F)F)c3)S2)CN1 (stereo in doubt) [Compound 41, 5-[1-(4-Chloro-2-trifluoromethyl-benzyl)-1H-indazol-5-ylmethylene]-2-[(5-methoxymethyl-pyrrolidin-3-yl)-methyl-amino]-thiazol-4-one] | 7.62
17 | CN(CCN1CCOCC1)C1=NC(=O)/C(=C/c2ccc3c(cnn3Cc3ccc(C(F)(F)F)cc3C(F)(F)F)c2)S1 [Compound 27, 5-[1-(2,4-Bis-trifluoromethyl-benzyl)-1H-indazol-5-ylmethylene]-2-[methyl-(2-morpholin-4-yl-ethyl)-amino]-thiazol-4-one] | 7.68
18 | CN(CC(=O)O)C1=NC(=O)/C(=C/c2ccc3c(cnn3Cc3ccc(O)cc3C(F)(F)F)c2)S1 [Compound 62, ({5-[1-(4-Hydroxy-2-trifluoromethyl-benzyl)-1H-indazol-5-ylmethylene]-4-oxo-4,5-dihydro-thiazol-2-yl}-methyl-amino)-acetic acid] | 7.77
19 | CN(C1=NC(=O)/C(=C/c2ccc3c(cnn3Cc3ccc(C(F)(F)F)cc3C(F)(F)F)c2)S1)C1CCNCC1 [Compound 17, 5-[1-(2,4-Bis-trifluoromethyl-benzyl)-1H-indazol-5-ylmethylene]-2-(methyl-piperidin-4-yl-amino)-thiazol-4-one] | 7.43
20 | CN(CC(=O)O)C1=NC(=O)/C(=C/c2ccc3c(cnn3Cc3ccc(C(F)(F)F)cc3C(F)(F)F)c2)S1 [Compound 58, ({5-[1-(2,4-Bis-trifluoromethyl-benzyl)-1H-indazol-5-ylmethylene]-4-oxo-4,5-dihydro-thiazol-2-yl}-methyl-amino)-acetic acid] | 7.42
21 | CN(CC1(CO)CC1)C1=NC(=O)/C(=C/c2ccc3c(cnn3Cc3ccc(Cl)cc3C(F)(F)F)c2)S1 [Compound 36, 5-[1-(4-Chloro-2-trifluoromethyl-benzyl)-1H-indazol-5-ylmethylene]-2-[(1-hydroxymethyl-cyclopropylmethyl)-methyl-amino]-thiazol-4-one] | 7.68
